According to patent US20100239670A1, “Topical Composition Method for Treating Urinary Stress Incontinence” (Plethora Solutions Ltd., priority 2000, published 2010):

Columns and labels:
[1] = test system: female patients with documented history of stress incontinence; experiment: Supine and standing blood pressure and pulse rate in the same cross-over study; assay type: in vivo; conditions: single topical dose, gel 0.5 ml, 20% w/w; up to 5 hours post dosing
Experimental: (§1) The invention has been evaluated in a double-blind, randomised, 2-way cross-over study in female patients with documented history of stress incontinence. Each patient was exposed to both placebo and active drug over the course of the study.
(§2) Each patient received either a single dose of topical phenylephrine gel (20% w/w in a volume of 0.5 ml) or placebo according to the randomisation schedule. The gel was applied to the peri-urethral area; in, onto or around the area of the vagina and/or vaginal mucosa, in close proximity to the urethra. For up to 5 hours post dosing, urethral pressure was measured using the standard Lectromed/Galetec MPR/2 ambulatory measurement system. Supine and standing blood pressure and pulse rate was likewise measured using standard methodology via a Dinamap semi-automatic sphygmomanometer.

[2] = test system: female patients with documented history of stress incontinence; experiment: Urethral pressure after topical gel, double-blind randomised 2-way cross-over study; assay type: in vivo; conditions: single topical dose, gel 0.5 ml, 20% w/w, applied to peri-urethral area; up to 5 hours post dosing; in contrast to placebo; two typical patients (FIGS. 1 and 2)
Experimental: as §1, §2

[3] = literature, cited from earlier work

SMILES: CNC[C@H](O)c1cccc(O)c1 [phenylephrine]
- diastolic or systolic blood pressure [1]: no clinically significant changes
- pulse rate [1]: no clinically significant changes
- intra-urethral pressure [2]: marked and sustained increases
- blood pressure ([3]; not topical): substantial elevations
- duration of action [3]: short
- oral bioavailability ([3]; oral): low
